This is an account of results in patent publication US20220232834A1, “PSEUDOMONAS CHLORORAPHIS SPECIES AND ITS USE IN THE CONTROL OF DISEASES CAUSED BY BACTERIA AND FUNGI” (T3 BIOSCIENCE, LLC, priority 2021, published 2022).

The test system of one assay is Phytophthora infestans. As to conditions: cited from earlier work.
The test system of assay [1] is Gaeumannomyces graminis var. tritici. Particulars: Ref 6; producer P. fluorescens 2-79; cited from earlier work.
The test system of assay [2] is Clavibacter michiganensis subsp. michiganensis 382. The assay is described as follows: MIC value study of 1214-CHY4 metabolites. In kind it is cell-based. Particulars: Clavibacter michiganensis.
The test system of another assay is Fusarium oxysporum. Particulars: cited from earlier work.
The test system of assay [3] is Xanthomonas euvesicatoria 75-3. The assay is described as follows: microbe, parasite or virus in culture. Type of assay: cell-based. Particulars: 753.
The subject of assay [4] is Phytophthora infestans 88069. The assay is described as follows: microbe, parasite or virus in culture. In kind it is cell-based.
Assay [5] concerns Venturia inaequalis VI19-032. The assay is described as follows: microbe, parasite or virus in culture. Type of assay: cell-based. As to conditions: VI19032.
A further assay deals with Botrytis cinerea. As to conditions: cited from earlier work.
The test system of assay [6] is Pseudomonas syringae. pv. tomato PT30. The assay is described as follows: microbe, parasite or virus in culture. Type of assay: cell-based.
A further assay has as its system Botrytis cinerea CA17. The assay is described as follows: microbe, parasite or virus in culture. In kind it is cell-based.
Another assay has as its system Seiridium cardinale. As to conditions: Ref 4; producer P. chlororaphis subsp. aureofaciens M71; cited from earlier work.
Assay [7] concerns Ralstonia solanacearum K60. The assay is described as follows: microbe, parasite or virus in culture. Type of assay: cell-based.
In assay [8] the test system is Alternaria alternata, Phytophthora sp., Fusarium solani, F. oxysporum. Particulars: Ref 12; producer P. chlororaphis MCC2693; cited from earlier work.
The next assay concerns Vibrio anguillarum C312. As to conditions: Ref 5; producer P. aeruginosa PA31x; cited from earlier work.
The test system of assay [9] is Clavibacter michiganensis subsp. michiganensis Cmm 0317. The assay is described as follows: plate diffusion assay. Type of assay: cell-based. Particulars: 200 μg/mL, read-out: Diameter of Growth Inhibition Zone.
Assay [10] concerns Clavibacter michiganensis subsp. michiganensis NCPPB382. The assay is described as follows: plate diffusion assay. Type of assay: cell-based. Particulars: 200 μg/mL, read-out: Diameter of Growth Inhibition Zone.
Assay [11] relates to Clavibacter michiganensis subsp. michiganensis Cmm 0690. The assay is described as follows: plate diffusion assay. Type of assay: cell-based. As to conditions: 200 μg/mL, read-out: Diameter of Growth Inhibition Zone.

Values after ≈ are worked out from the molar mass of the structure shown. Read-outs that look alike come from different tables or passages of the source. Marks after values point to notes of the source that are not given here.

On to `O=C(O)c1cccc2nc3ccccc3nc12` (single isomer, unassigned) [Peak 4, phenazine-1-carboxylic acid], for which the “Active Against” value in the assay on Phytophthora infestans (Ref 2, producer P. fluorescens LBUM636) is given as “Phytophthora infestans”; with Phytophthora infestans (Ref 3, producer P. fluorescens LBUM223), “Phytophthora infestans”; in assay [1], “Gaeumannomyces graminis var. tritici”; with Fusarium oxysporum (Ref 7, producer P. fluorescens strain Psd), “Fusarium oxysporum”; in the assay on Botrytis cinerea (Ref 1, producer P. aeruginosa LV Strain) it was “Botrytis cinerea”; with Seiridium cardinale, “Seiridium cardinale”. Moreover, the “Active Against” value in the assay on Vibrio anguillarum C312 is given as “Vibrio anguillarum C312”. The MIC in assay [2] was 100 µg/mL; in [3], 100 µg/mL (≈ 446 µM); in [4] it was 1.56 µg/mL (≈ 6.96 µM); in assay [5], 31.3 µg/mL (≈ 140 µM); in assay [6], 100 µg/mL (≈ 446 µM); with Botrytis cinerea CA17, 62.5 µg/mL (≈ 279 µM). Besides, the MIC is 6.25 µg/mL (≈ 27.9 µM) in assay [7] (Ralstonia solanacearum, K60) and 6.25^b μg/mL in assay [7] (agar dilution method). Also, the “reported to be effective against” value in the assay with Fusarium oxysporum (Upadhyay and Srivastava, 2011) is recorded as “effective”; in the assay with Botrytis cinerea (Upadhyay and Srivastava, 2011) it was “effective”. For the same molecule, the “Active Against (order)” value in [8] is on record as “Alternaria alternata > Phytophthora sp. >”.
As for `CN[C@H](CC(C)C)C(=O)N[C@H]1C(=O)N[C@@H](CC(N)=O)C(=O)N[C@H]2C(=O)N[C@H]3C(=O)N[C@H](C(=O)N[C@H](C(=O)O)c4cc(O)cc(O)c4-c4cc3ccc4O)[C@H](O)c3ccc(c(Cl)c3)Oc3cc2cc(c3O[C@@H]2O[C@H](CO)[C@@H](O)[C@H](O)[C@H]2O[C@H]2C[C@](C)(N)[C@H](O)[C@H](C)O2)Oc2ccc(cc2Cl)[C@H]1O` [Vancomycin, reference compound], the zone of inhibition at 200 µg/mL stood at 11 mm in assay [9], 13 mm in assay [10] and 12 mm in assay [11]. Moreover, the MIC in [2] was 0.39 µg/mL; in assay [3] it was 50 µg/mL (≈ 34.5 µM); in assay [6], 100 µg/mL (≈ 69 µM); in assay [7] (Ralstonia solanacearum, K60), 100 µg/mL (≈ 69 µM).

Usually zone of inhibition stands for the extent of the growth-free halo in a diffusion test.
